Laboratory results taken from patent US20260176260A1, “DUAL RAF AND TUBULIN INHIBITORS AND METHODS OF USE THEREOF” (Deciphera Pharmaceuticals, LLC, priority 2023, published 2026).

Legend:
C-Raf kinase = target: T1, C-Raf kinase (Homo sapiens, UniProt P04049, Y340D/Y341D); assay: Biochemical assay for C-Raf (coupled pyruvate kinase/lactate dehydrogenase); settings: Table 5; read-out: CRAF
T1 construct: C-Raf residues 306-end; Y340D, Y341D with N-; purchased Sigma

[1] = system: tubulin polymerization in HCT-116 cells; assay: Cellular tubulin polymerization assay (pellet/supernatant a-tubulin, HCT-116 cells); assay type: cell-based; settings: Table 5, HCT-116 cells; read-out: Tubulin Cellular
Protocol: HCT-116 cells (catalog #CCL-247) are obtained from the American Type Culture Collect (ATCC, Manassas, VA). Briefly, cells are grown in McCoy's 5A supplemented with 10% characterized fetal bovine serum (Invitrogen, Carlsbad, CA) and 1% Penicillin/Streptomycin/L-Glutamine at 37° C., 5% CO2, and 95% humidity. Cells are expanded until reaching 70-95% confluency at which point they are sub-cultured or harvested for assay use. 450000 cells are added per well in 1500 μL complete growth medium in a tissue culture treated, 12-well plate. Plates are incubated for 18 to 24 h at 37° C., 5% CO2, and 95% humidity. At the end of the incubation, 2000 μL of base culture media is added to each well, followed by a serial dilution of compound. Plates are incubated for an additional 1 h at 37° C., 5% CO2, and 95% humidity. Lysates are generated by the addition of 100 μL Lysis and Microtubule Stabilization Buffer 1 (LMS01, Cytoskeleton Inc, Denver, CO) supplemented with GTP (BST06, Cytoskeleton Inc), ATP (BSA04, Cytoskeleton Inc), and Protease Inhibitor Cocktail Stock (PIC02, Cytoskeleton Inc). Cells are scraped off wells using a rubber cell scraper and collected in a clean 96-well plate. Lysates are centrifuged at 1000×g, 37° C. for 10 min and supernatant fraction is placed into an additional 96-well plate. The remaining pellet fraction is reconstituted in 100 μL LMS01 buffer and sonicated for 10 min. Pellet and Supernatant fractions are probed for a-tubulin via western blot analysis on the Jess System or equivalent (Bio-techne, Minneapolis, MN). Data is analyzed using Prism software (Graphpad, San Diego, CA) to calculate IC50 values.

Porcine Brain Tubulin = target: T2, Porcine Brain Tubulin (Sus scrofa, UniProt P02550+P02554); assay: Biochemical tubulin polymerization assay; settings: Table 5; read-out: Tubulin Biochem
T2 construct: Porcine Brain Tubulin (T240); purchased Cytoskeleton, Inc T240; BK011P; host or cells: porcine brain

HCT-116 cells = assay: HCT-116 cell proliferation assay (resazurin); assay type: cell-based; settings: Table 5; read-out: HCT-116
How it was run: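 HCT-116 cells, 375 per well in McCoy's 5A with 10% FBS, exposed to serially diluted compound in triplicate for 67-72 h at 37 °C. Resazurin added for 4-5 h more; fluorescence (ex 540/em 600 nm) fitted to IC50.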

MiaPaca-2 cells = assay: MiaPaca-2 cell proliferation assay (resazurin); assay type: cell-based; settings: Table 5; read-out: MiaPaca-2
B-Raf kinase = target: T3, B-Raf kinase (Homo sapiens, UniProt P15056); assay: Biochemical assay for B-Raf (coupled pyruvate kinase/lactate dehydrogenase); settings: Table 5; read-out: BRAF
T3 construct: purchased Sigma

HPAF-II cells = assay: HPAF-II cell proliferation assay (resazurin); assay type: cell-based; settings: Table 5; read-out: HPAF-II
How it was run: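 Serial compound dilutions in triplicate with 750 cells/well in complete MEM with 10% FBS, 115 to 120 h at 37° C, 5% CO2. Resazurin then added for 18 to 24 h; fluorescence at ex 540/em 600 nm used to derive IC50.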

T2 sequence (P02550 whole entry): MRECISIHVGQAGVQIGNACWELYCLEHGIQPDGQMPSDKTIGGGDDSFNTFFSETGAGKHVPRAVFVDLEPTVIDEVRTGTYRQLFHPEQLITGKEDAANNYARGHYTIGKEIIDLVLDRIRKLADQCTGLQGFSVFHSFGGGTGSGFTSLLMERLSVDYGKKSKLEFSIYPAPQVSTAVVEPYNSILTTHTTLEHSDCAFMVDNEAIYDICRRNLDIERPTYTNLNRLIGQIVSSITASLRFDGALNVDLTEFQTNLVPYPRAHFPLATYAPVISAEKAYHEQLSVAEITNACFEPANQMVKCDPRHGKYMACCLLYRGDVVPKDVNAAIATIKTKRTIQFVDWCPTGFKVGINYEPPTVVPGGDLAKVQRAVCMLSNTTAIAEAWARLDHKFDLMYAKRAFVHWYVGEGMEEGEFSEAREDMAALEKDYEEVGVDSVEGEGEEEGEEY
T2 sequence (P02554 whole entry): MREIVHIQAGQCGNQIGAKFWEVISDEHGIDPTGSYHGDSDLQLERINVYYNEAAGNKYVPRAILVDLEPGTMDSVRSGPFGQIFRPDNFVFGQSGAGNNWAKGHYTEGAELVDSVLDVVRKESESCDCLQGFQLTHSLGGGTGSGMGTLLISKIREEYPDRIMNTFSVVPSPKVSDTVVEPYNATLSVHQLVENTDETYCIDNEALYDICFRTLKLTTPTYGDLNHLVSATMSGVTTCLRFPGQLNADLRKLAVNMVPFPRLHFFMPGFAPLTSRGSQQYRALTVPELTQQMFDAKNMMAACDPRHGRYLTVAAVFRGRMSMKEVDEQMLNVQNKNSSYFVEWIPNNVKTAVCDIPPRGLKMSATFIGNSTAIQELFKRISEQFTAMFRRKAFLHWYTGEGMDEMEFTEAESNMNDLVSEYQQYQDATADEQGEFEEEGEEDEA
T3 sequence (P15056 416-766): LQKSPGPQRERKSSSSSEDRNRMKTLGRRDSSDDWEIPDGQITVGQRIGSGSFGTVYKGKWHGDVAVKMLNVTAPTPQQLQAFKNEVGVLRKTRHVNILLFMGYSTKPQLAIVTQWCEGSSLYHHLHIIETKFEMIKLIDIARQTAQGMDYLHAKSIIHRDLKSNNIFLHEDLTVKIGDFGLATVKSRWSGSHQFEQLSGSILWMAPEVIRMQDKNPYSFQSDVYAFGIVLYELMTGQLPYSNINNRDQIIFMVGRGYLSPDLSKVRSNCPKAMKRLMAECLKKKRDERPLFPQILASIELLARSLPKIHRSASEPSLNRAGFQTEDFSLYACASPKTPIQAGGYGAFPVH

Belvarafenib [reference compound]
IC50 (C-Raf kinase): < 0.1 µM | IC50 [1]: 1 to 10 µM | IC50 (Porcine Brain Tubulin): > 100 µM | IC50 (HCT-116 cells): 0.5 to 1 µM | IC50 (MiaPaca-2 cells): 1 to 10 µM | IC50 (B-Raf kinase): < 0.1 µM | IC50 (HPAF-II cells): 1 to 10 µM
